Data reported in patent publication US8415378B2, “Isoxazol-3(2H)-one analogs as therapeutic agents” (AstraZeneca AB, priority 2009, dated 2013).

Each compound was assayed against T1, human Glu-plasminogen (Homo sapiens, UniProt P00747) (assay: Clot-lysis buffer assay).
T1 construct: human Glu-plasminogen; purchased Chromogenix, Italy
Assay type: biochemical
Experimental: The assay method used for evaluating biological activity of the compounds according to the invention was Clot-lysis buffer assay.
Tested substance were added to the reaction mixture in 10% DMSO. Reaction was started by the addition of thrombin.
Measured according to the Clot-lysis buffer assay described above.

T1 sequence (P00747 20-810 limits assumed): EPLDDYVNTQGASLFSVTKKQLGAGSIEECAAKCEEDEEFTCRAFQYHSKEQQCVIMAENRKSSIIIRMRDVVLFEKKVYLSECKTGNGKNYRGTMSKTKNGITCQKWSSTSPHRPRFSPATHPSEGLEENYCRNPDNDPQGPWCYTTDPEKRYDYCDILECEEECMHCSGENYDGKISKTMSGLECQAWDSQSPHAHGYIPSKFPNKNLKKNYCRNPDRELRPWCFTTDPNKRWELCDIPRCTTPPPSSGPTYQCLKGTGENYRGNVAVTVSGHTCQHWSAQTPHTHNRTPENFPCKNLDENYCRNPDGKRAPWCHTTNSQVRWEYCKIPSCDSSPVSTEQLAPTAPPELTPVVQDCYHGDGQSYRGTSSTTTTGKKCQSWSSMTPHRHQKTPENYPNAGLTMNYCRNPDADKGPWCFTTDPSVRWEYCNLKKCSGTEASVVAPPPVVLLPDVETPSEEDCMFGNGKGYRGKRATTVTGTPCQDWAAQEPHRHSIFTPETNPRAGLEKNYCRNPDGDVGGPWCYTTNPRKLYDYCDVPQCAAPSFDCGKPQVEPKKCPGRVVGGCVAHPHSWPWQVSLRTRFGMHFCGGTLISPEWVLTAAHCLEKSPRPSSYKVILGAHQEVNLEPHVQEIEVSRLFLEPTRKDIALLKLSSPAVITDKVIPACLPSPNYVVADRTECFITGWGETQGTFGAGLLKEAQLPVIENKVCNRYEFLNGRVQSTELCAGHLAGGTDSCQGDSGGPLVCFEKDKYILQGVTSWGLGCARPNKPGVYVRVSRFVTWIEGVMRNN

Row | SMILES | IC50 [µM]
1 | O=c1cc([C@@H]2CCN[C@@H](c3ccc(F)cc3)C2)o[nH]1 (relative stereo) [Example 26, 5-(Trans-2-(4-fluorophenyl)piperidin-4-yl)isoxazol-3(2H)-one] | 73.8
2 | O=c1cc([C@@H]2CCN[C@@H](c3ccc(Cl)cc3)C2)o[nH]1 (relative stereo) [Example 29, 5-(Trans-2-(4-chlorophenyl)piperidin-4-yl)isoxazol-3(2H)-one] | 24
3 | O=c1cc([C@@H]2CCN[C@@H](c3ccc(C(F)(F)F)cc3)C2)o[nH]1 (relative stereo) [Example 35, 5-(Trans-2-(4-(trifluoromethyl)phenyl)piperidin-4-yl)isoxazol-3(2H)-one] | 14.4
4 | CC(C)(C)c1ccc([C@H]2C[C@H](c3cc(=O)[nH]o3)CCN2)cc1 (relative stereo) [Example 37, 5-(Trans-2-(4-tert-butylphenyl)piperidin-4-yl)isoxazol-3(2H)-one] | 228
5 | O=c1cc([C@@H]2CCN[C@@H](c3ccc(C(F)(F)F)nc3)C2)o[nH]1 (relative stereo) [Example 41, 5-(Trans-2-(6-(trifluoromethyl)pyridin-3-yl)piperidin-4-yl)isoxazol-3(2H)-one] | 40.9
6 | O=c1cc([C@@H]2CCN[C@@H](c3ccc(Cl)cc3F)C2)o[nH]1 (relative stereo) [Example 46, 5-(Trans-2-(4-chloro-2-fluorophenyl)piperidin-4-yl)isoxazol-3(2H)-one] | 90.7
7 | O=c1cc([C@@H]2CCN[C@@H](c3ccc(OC(F)(F)F)cc3F)C2)o[nH]1 (relative stereo) [Example 59, 5-(Trans-2-(2-fluoro-4-(trifluoromethoxy)phenyl)piperidin-4-yl)isoxazol-3(2H)-one] | 70.7
8 | O=c1cc([C@@H]2CCN[C@@H](c3cc(F)c(F)c(F)c3)C2)o[nH]1 (relative stereo) [Example 62, 5-(Trans-2-(3,4,5-trifluorophenyl)piperidin-4-yl)isoxazol-3(2H)-one] | 7.1
9 | O=c1cc([C@@H]2CCN[C@@H](c3cc(F)c(Cl)c(F)c3)C2)o[nH]1 (relative stereo) [Example 66, 5-(Trans-2-(4-chloro-3,5-difluorophenyl)piperidin-4-yl)isoxazol-3(2H)-one] | 7.5
10 | Cc1cc([C@H]2C[C@H](c3cc(=O)[nH]o3)CCN2)ccc1C(F)(F)F (relative stereo) [Example 69, 5-(Trans-2-(3-methyl-4-(trifluoromethyl)phenyl)piperidin-4-yl)isoxazol-3(2H)-one] | 92.5
11 | O=c1cc([C@@H]2CCN[C@@H](c3cc(F)c(C(F)(F)F)c(F)c3)C2)o[nH]1 (relative stereo) [Example 71, 5-(Trans-2-(3,5-difluoro-4-(trifluoromethyl)phenyl)piperidin-4-yl)isoxazol-3(2H)-one] | 11.6
12 | Cn1nnc([C@H]2C[C@H](c3cc(=O)[nH]o3)CCN2)n1 (relative stereo) [Example 82, 5-(Trans-2-(2-methyl-2H-tetrazol-5-yl)piperidin-4-yl)isoxazol-3(2H)-one] | 20.3
13 | O=c1cc([C@@H]2CCN[C@@H](COC3CCCCC3)C2)o[nH]1 (relative stereo) [Example 86, 5-(Trans-2-(cyclohexyloxymethyl)piperidin-4-yl)isoxazol-3(2H)-one] | 15.6
14 | O=c1cc([C@@H]2CCN[C@@H](C(F)F)C2)o[nH]1 (relative stereo) [Example 88, 5-(Trans-2-(difluoromethyl)piperidin-4-yl)isoxazol-3(2H)-one] | 31.2
15 | O=c1cc([C@@H]2CCN[C@@H](CC3CCC(F)(F)CC3)C2)o[nH]1 (relative stereo) [Example 91, 5-(Trans-2-((4,4-difluorocyclohexyl)methyl)piperidin-4-yl)isoxazol-3(2H)-one] | 5.9
16 | O=c1cc([C@@H]2CCN[C@@H](CCc3ccc(F)cc3)C2)o[nH]1 (relative stereo) [Example 94, 5-(Trans-2-(4-fluorophenethyl)piperidin-4-yl)isoxazol-3(2H)-one] | 4.6
17 | O=c1cc([C@@H]2CCN[C@@H](Cc3cccc(C(F)(F)F)c3)C2)o[nH]1 (relative stereo) [Example 109, 5-(Trans-2-(3-(trifluoromethyl)benzyl)piperidin-4-yl)isoxazol-3(2H)-one] | 5
18 | O=c1cc([C@@H]2CCN[C@@H](Cc3cc(F)ccc3F)C2)o[nH]1 (relative stereo) [Example 126, 5-(Trans-2-(2,5-difluorobenzyl)piperidin-4-yl)isoxazol-3(2H)-one] | 3.6
19 | O=c1cc([C@@H]2CCN[C@@H](Cc3c(F)cccc3F)C2)o[nH]1 (relative stereo) [Example 129, 5-(Trans-2-(2,6-difluorobenzyl)piperidin-4-yl)isoxazol-3(2H)-one] | 10.2
20 | O=c1cc([C@@H]2CCN[C@@H](Cc3ccc(F)cc3F)C2)o[nH]1 (relative stereo) [Example 136, 5-(Trans-2-(2,4-difluorobenzyl)piperidin-4-yl)isoxazol-3(2H)-one] | 4.94
21 | O=c1cc([C@@H]2CCN[C@@H](Cc3cc(F)cc(C(F)(F)F)c3)C2)o[nH]1 (relative stereo) [Example 139, 5-(Trans-2-(3-fluoro-5-(trifluoromethyl)benzyl)piperidin-4-yl)isoxazol-3(2H)-one] | 2.9
22 | O=c1cc([C@@H]2CCN[C@@H](Cc3ccc(C(F)(F)F)c(F)c3)C2)o[nH]1 (relative stereo) [Example 142, 5-(Trans-2-(3-fluoro-4-(trifluoromethyl)benzyl)piperidin-4-yl)isoxazol-3(2H)-one] | 1.8
23 | O=c1cc([C@@H]2CCN[C@@H](Cc3cc(F)c(F)c(F)c3)C2)o[nH]1 (relative stereo) [Example 145, 5-(Trans-2-(3,4,5-trifluorobenzyl)piperidin-4-yl)isoxazol-3(2H)-one] | 4.3
24 | CC(C)(C)c1cc(C[C@H]2C[C@H](c3cc(=O)[nH]o3)CCN2)cc(C(C)(C)C)c1 (relative stereo) [Example 148, 5-(Trans-2-(3,5-di-tert-butylbenzyl)piperidin-4-yl)isoxazol-3(2H)-one] | 2.7
25 | CC(C)(C)c1ccc(C[C@H]2C[C@@H](c3cc(=O)[nH]o3)CCN2)cc1 [Example 12, 5-((2R,4S)-2-(4-tert-Butylbenzyl)piperidin-4-yl)isoxazol-3(2H)-one] | 2.25
26 | CC(C)(C[C@H]1C[C@@H](c2cc(=O)[nH]o2)CCN1)c1ccccc1 [Example 19, 5-((2R,4S)-2-(2-Methyl-2-phenylpropyl)piperidin-4-yl)isoxazol-3(2H)-one] | 1.6
27 | O=c1cc([C@H]2CCN[C@@H](c3ccc(F)c(F)c3)C2)o[nH]1 [Example 23, 5-((2R,4S)-2-(3,4-Difluorophenyl)piperidin-4-yl)isoxazol-3(2H)-one] | 1

Second part, the compound after the results:

Row | IC50 [µM] | SMILES
28 | 42.8 | O=c1cc([C@@H]2CCN[C@@H](c3ccc(F)c(F)c3)C2)o[nH]1 (relative stereo) [Example 24, 5-(Trans-2-(3,4-difluorophenyl)piperidin-4-yl)isoxazol-3(2H)-one]
29 | 23.6 | O=c1cc([C@@H]2CCN[C@@H](c3cccc(C(F)(F)F)c3)C2)o[nH]1 (relative stereo) [Example 32, 5-(Trans-2-(3-(trifluoromethyl)phenyl)piperidin-4-yl)isoxazol-3(2H)-one]
30 | 44.3 | O=c1cc([C@@H]2CCN[C@@H](c3ccc(F)cc3Cl)C2)o[nH]1 (relative stereo) [Example 48, 5-(Trans-2-(2-chloro-4-fluorophenyl)piperidin-4-yl)isoxazol-3(2H)-one]
31 | 5.3 | O=c1cc([C@@H]2CCN[C@@H](c3ccc(Cl)c(F)c3)C2)o[nH]1 (relative stereo) [Example 50, 5-(Trans-2-(4-chloro-3-fluorophenyl)piperidin-4-yl)isoxazol-3(2H)-one]
32 | 40 | O=c1cc([C@@H]2CCN[C@@H](c3cc(Cl)cc(Cl)c3)C2)o[nH]1 (relative stereo) [Example 57, 5-(Trans-2-(3,5-dichlorophenyl)piperidin-4-yl)isoxazol-3(2H)-one]
33 | 52.2 | O=c1cc([C@@H]2CCN[C@@H](c3ccc(C(F)(F)F)cc3F)C2)o[nH]1 (relative stereo) [Example 74, 5-(Trans-2-(2-fluoro-4-(trifluoromethyl)phenyl)piperidin-4-yl)isoxazol-3(2H)-one]
34 | 5.5 | O=c1cc([C@@H]2CCN[C@@H](Cc3ccccc3C(F)(F)F)C2)o[nH]1 (relative stereo) [Example 112, 5-(Trans-2-(2-(trifluoromethyl)benzyl)piperidin-4-yl)isoxazol-3(2H)-one]
35 | 6.5 | O=c1cc([C@@H]2CCN[C@@H](Cc3ccc(OC(F)(F)F)cc3)C2)o[nH]1 (relative stereo) [Example 114, 5-(Trans-2-(4-(trifluoromethoxy)benzyl)piperidin-4-yl)isoxazol-3(2H)-one]
36 | 5.6 | O=c1cc([C@@H]2CCN[C@@H](Cc3ccc(Cl)cc3)C2)o[nH]1 (relative stereo) [Example 116, 5-(Trans-2-(4-chlorobenzyl)piperidin-4-yl)isoxazol-3(2H)-one]
37 | 10.7 | CS(=O)(=O)c1ccc(C[C@H]2C[C@H](c3cc(=O)[nH]o3)CCN2)cc1 (relative stereo) [Example 119, 5-(Trans-2-(4-(methylsulfonyl)benzyl)piperidin-4-yl)isoxazol-3(2H)-one]
38 | 4.3 | CC(C)(C)c1ccc(C[C@@H]2C[C@@H](c3cc(=O)[nH]o3)CCN2)cc1 [Example 11, 5-((2S,4S)-2-(4-tert-Butylbenzyl)piperidin-4-yl)isoxazol-3(2H)-one]
39 | 1.6 | CC(C)(C[C@@H]1C[C@@H](c2cc(=O)[nH]o2)CCN1)c1ccccc1 [Example 18, 5-((2S,4S)-2-(2-Methyl-2-phenylpropyl)piperidin-4-yl)isoxazol-3(2H)-one]
40 | 2.5 | O=c1cc([C@H]2CCN[C@@H](c3ccc(F)cc3)C2)o[nH]1 [Example 25, 5-((2R,4S)-2-(4-Fluorophenyl)piperidin-4-yl)isoxazol-3(2H)-one]
